# Assay results taken from patent US20220281794A1, “METHOD OF THE ISOLATING CHLOROSESAMONE OR CHLOROSESAMONE-CONTAINING FRACTION FROM ROOTS OF GENUS SESAMUM, AND APPLICATION OF THE FRACTION THEREOF” (BRILLIANT BIOMEDICAL CORP., priority 2019, published 2022).
# Key:
# Type in all cases: cell-based
# [1] = tested on: 4T1 mouse breast cancer cell; test: cell viability assay (MTT assay), 4T1; conditions: 4T1 cells, 24 hours treatment stated for D2 fraction
# Description: (§1) In the first embodiment, MDA-MB-231, a human breast cancer cell and 4T1, a mouse breast cancer cell, Huh-7 and HepG2, a human liver cancer cell and BNL-1-MEA, a mouse liver cancer cell, HL60, a human blood cancer cell and WEHI-3, a mouse blood cancer cell , and
# (§2) A549, a human lung cancer cell and LLC1, a mouse lung cancer cell are used for the experiments. A 96-well plate is used for cell culture. In the test, cells are treated with 0, 25, 50, 100, 200, 400 μg/mL of D2 fraction for 24 hours, and then subjected to cell viability assay (or MTT assay). In cell viability assay, cells are washed with 1X PBS once and treated with 0.5 mg/mL of MTT (3-(4,5-Dimethylthiazol-2-yl)-2,5-diphenyltetrazolium bromide). After incubation at 37 degrees Centigrade for 1-2 hours MTT is removed and cells are washed with 1X PBS once, followed by dimethyl sulfoxide (DMSO) to dissolve […]. Finally optical density (OD) of 570 nm is detected and medium only is used as a 100% cell viability.
# [2] = tested on: HepG2 human liver cancer cell; test: cell viability assay (MTT assay), HepG2; conditions: HepG2 cells, 24 hours treatment stated for D2 fraction
# Description: as §1, §2
# [3] = tested on: 4T1 mouse breast cancer cell and HepG2 human liver cancer cell; test: cell viability assay, summary over 4T1 and HepG2; conditions: range over 4T1 and HepG2 cells
# Description: as §1, §2
smiles,measurement,setting,value
CC(C)=CCC1=C(Cl)C(=O)c2c(O)ccc(O)c2C1=O [chlorosesamone],50% inhibition concentration in 4T1 mouse breast cancer cell,[1],1.3 µg/mL
same,50% inhibition concentration in HepG2 human liver cancer cell,[2],0.8 µg/mL
same,50% inhibition concentration of chlorosesamone (range),[3],0.8 to 1.3 µg/mL
